System: normotensive albino New Zealand rabbits
Experiment: Study of effect on intraocular pressure (IOP)
Format: in vivo, rabbit
Settings: intra-cameral administration, dexamethasone 0.1% (positive control)
Method: Control samples: • Positive control: dexamethasone 0.1%. • Negative control: 0.9% sodium chloride saline solution Material and Method • The laboratory animals used were normotensive albino New Zealand rabbits. The rabbits were adapted to periods of light/dark (12/12 hours) needed to adjust and maintain stable the diurnal cycle of the intraocular pressure (IOP). • Rabbits were distributed in different groups: the positive control group (positive control sample), the negative control group (negative control sample) and two test groups (two test samples). • The treatment involved the injection of dexamethasone into the anterior chamber, meanwhile for the rest of groups; each animal was topically instilled, in each eye with the control sample or the test composition 4 times a day for 15 days. • Measurement of IOP of the groups was performed twice a day. After the instillation in each animal, it was observed the possibility of adverse effects of the respective compound on the ocular surface. Results

- elevation of the intraocular pressure: statistically significant elevation
Structure (SMILES): C[C@@H]1C[C@H]2[C@@H]3CCC4=CC(=O)C=C[C@]4(C)[C@@]3(F)[C@@H](O)C[C@]2(C)[C@@]1(O)C(=O)CO [dexamethasone]

Reference: US10857160B2, “Oil-in-water nanoemulsion composition of clobetasol” (LABORATORIOS SALVAT, S.A., priority 2017, dated 2020)
